The text below walks through data of patent US20200239412A1, “NEW DERIVATES OF DHAA WITH ELECTROSTATIC TUNING” (priority 2017, published 2020).

The structures appear in SMILES notation. Several values for one entry are separate records, joined by “and”; a condition that tells them apart may be missing. Equal values may be shown once. Where a name gives a salt, the structure may show the parent alone. Read-outs that look alike come from different tables or passages of the source.

Series [1] has as its target T1, 3R Shaker Kv channel (M356R/A359R) (Drosophila melanogaster, UniProt P08510, A359R/DEL6-46/M356R). The series can be described thus: in vitro. As to conditions: for pKa at 100 μM: Drosophila, functional pH dependence, read-out: Functional pKa (pH where half of the maximum G(V) shift was achieved); for G(V) shift: mean. It is filed as cell-based. An excerpt:
(§1) Experiments were made with the Shaker H4 channel incapable of fast N-type inactivation due to a Δ6-46 deletion, referred to as the wt Shaker Kv channel. The 3R Shaker Kv channel with two additional positively charged arginines (M356R/A359R) in the extracellular end of S4, was also used.
(§2) For the Shaker channels, Bluescript II KS(+) plasmid was linearized with HindIII and synthesis of cRNA were made with the T7 mMessage mMachine kit (Ambion, Austin, Tex.). Point mutations around S4, on the Shaker Kv channel, were introduced using QuickChange Site-Directed Mutagenesis Kit (Agilent Technologies, Santa Clara, Calif.) and sequencing were used for verification.
(§3) 50 nl cRNA was injected into Xenopus laevis oocytes using a Nanoject injector (Drummond Scientific, Broomall, Pa.) and the oocytes were stored at 8° C. in a modified Barth's solution (MBS) before experiments (16° C., M-channel, 1-2 days). The MBS contained (in mM): 88 NaCl, 1 KCl, 2.4 NaHCO3, 15 HEPES, 0.33 Ca(NO3)2, 0.41 CaCl2), and 0.82 MgSO4, pH was adjusted to 7.5 by NaOH and the MBS was supplemented sodium pyruvate (2.5 mM). All animal experiments were approved by the Linkoping's local Animal Care and Use Committee.
(§4) Currents were measured 1-6 days after cRNA injection using the two-electrode voltage clamp technique (GeneClamp 500B amplifier, Axon instruments). Signals were low pass filtered at 5 kHz and digitized by a Digidata 1440A converter (Molecular Devices, Sunnyvale, Calif.). The amplifiers leak compensation was used and Clampex 10.2 software (Molecular Devices) was used to obtain data and create voltage protocols. The extracellular control solution contained (in mM): 1 KCl, 88 NaCl, 0.8 MgCl2, 0.4 CaCl2) and 15 HEPES. pH were adjusted with NaOH. Electrode pipettes were made from borosilicate glass capillaries (Harvard apparatus, Kent, UK) using a two stage electrode puller (Narishige, Tokyo, Japan) and resistance was between 0.5-2.0 MO once filled with 3 M KCl solution. In the voltage protocol for the wt and 3R Shaker channel, holding potential was set to −80 mV and steady-state currents were measured at voltages between −80 and +50 mV (wt Shaker Kv channel) or +70 mV (3R Shaker Kv channel), using 5 mV increments, 100 ms. […] Physiol. 143, 173-182 (2014). For the M-channel, holding potential was set to −100 mV, test-voltages were measured between −120 and +50 mV (10 mV increments for 2 s) and tail currents were measured at −30 mV.
(§5) Control solution was perfused to the recording chamber (0.5 ml/min) and the test solution was added manually with a syringe, in a volume large enough to replace the control solution manifold. Resin acids compounds were dissolved in DMSO (100 mM) and stored at −20° C. Just prior to experiment the compound was diluted to desired concentration in control solution. Recovery was measured after continuously perfusion of control solution, maximum 5 min. All recordings were made with the perfusion off. Experiments were carried out in room temperature (20-23° C.) and chemicals were purchased from Sigma Aldrich if not stated otherwise.
(§6) Currents were leak subtracted and steady-state currents were measured 80-86 ms after onset of the test voltages (Clampfit 10.5, Molecular Devices). K conductance, GK, was calculated using,
(§7) where IK is the steady-state current, V the absolute membrane voltage and VK the reversal potential for K ions (−80 mV), and the following Boltzmann curve was used to fit the data:
(§8) GK(V)=A/(1+exp((V1/2−V)/s)^n (2)
(§9) where A is the amplitude of the curve, V1/2 the midpoint when n=1, s the slope and n an exponent for better curve fitting, set to n=4. The voltage shift was calculated at 10% of maximal conductance in control curve.
(§10) To quantify the concentration dependence or pH dependence of the GK(V) shifts the following equation was used:
(§11) ΔVG(V)=ΔVMAX/(1+c1/2/c), (3)

For series [2], the target named is T1, 3R Shaker Kv channel (M356R/A359R). As to conditions: cited from earlier work.
Another series deals with T2, hKv7.2/Kv7.3 (M-channel) (Homo sapiens, UniProt O43525+O43526).
T2 construct: expressed in transfected cells; host or cells: Xenopus laevis oocytes (cRNAs mixed 1:1)
The series can be described thus: Two-electrode voltage clamp, G(V) shift on human M-channel expressed in Xenopus laevis oocytes. Format: cell-based. As to conditions: for G(V) shift: pH 7.4, 100 μM, mean. The procedure: Experiments were also made with the human hKv7.2/Kv7.3, referred to as the M-channel. cRNAs were mixed in a 1:1 molar ratio before injection into oocytes. hKv7.2 [GenBank Acc. No. NM_004518]. hKv7.3 [GenBank Acc. No NM_004519].
as §3, §4, §5
For the M channel tail currents were measured 18 ms after onset and then plotted against the test voltage. The Boltzmann curve (Eq. 2) was used to fit data and the slope was set to shared value between control and test compound. V1/2 was used to calculate the GK(V) shift.
as §10, §11
where ΔVG(v) is the voltage shift, ΔVMAX is the amplitude of the curve, c the concentration, c1/2 the concentration at which half maximum response occur. For compounds with no pH dependence the data was fitted with a horizontal line, with the slope set to 0.
In general terms: Two-electrode voltage clamp holds a large cell at a set potential and records current.

Series [3] concerns the target wt Shaker Kv channel (Shaker H4, Δ6-46) (Drosophila melanogaster, UniProt P08510, DEL6-46). The series can be described thus: Two-electrode voltage clamp, G(V) shift on wt Shaker Kv channel expressed in Xenopus laevis oocytes. It is filed as cell-based. The following applies: for G(V) shift: mean.
Text: as §1, §2, §3, §4, §5, §6, §7, §8, §9, §10, §11

The target in another series is R362Q Shaker Kv channel (Drosophila melanogaster, UniProt P08510, DEL6-46/R362Q). The series is described as follows: G(V) shift on Shaker Kv channel S4 mutant R362Q compared with wt R362. Format: cell-based. As to conditions: 100 μM, pH 7.4, FIG. 9D. The procedure:
as §2
Currents were measured 1-6 days after cRNA injection using the two-electrode voltage clamp technique (GeneClamp 500B amplifier, Axon instruments). Signals were low pass filtered at 5 kHz and digitized by a Digidata 1440A converter (Molecular Devices, Sunnyvale, Calif.). The amplifiers leak compensation was used and Clampex 10.2 software (Molecular Devices) was used to obtain data and create voltage protocols. The extracellular control solution contained (in mM): 1 KCl, 88 NaCl, 0.8 MgCl2, 0.4 CaCl2) and 15 HEPES. pH were adjusted with NaOH. […] In the voltage protocol for the wt and 3R Shaker channel, holding potential was set to −80 mV and steady-state currents were measured at voltages between −80 and +50 mV (wt Shaker Kv channel) or +70 mV (3R Shaker Kv channel), using 5 mV increments, 100 ms. […] For the M-channel, holding potential was set to −100 mV, test-voltages were measured between −120 and +50 mV (10 mV increments for 2 s) and tail currents were measured at −30 mV. […]

[4] abbreviates: pH 7.4, concentration-response of G(V) shift, read-out: c1/2 (half-maximal concentration).

Sequence of wt Shaker Kv channel (Shaker H4, Δ6-46) (P08510 other isoform, or with tags, fused parts or gaps DEL6-46): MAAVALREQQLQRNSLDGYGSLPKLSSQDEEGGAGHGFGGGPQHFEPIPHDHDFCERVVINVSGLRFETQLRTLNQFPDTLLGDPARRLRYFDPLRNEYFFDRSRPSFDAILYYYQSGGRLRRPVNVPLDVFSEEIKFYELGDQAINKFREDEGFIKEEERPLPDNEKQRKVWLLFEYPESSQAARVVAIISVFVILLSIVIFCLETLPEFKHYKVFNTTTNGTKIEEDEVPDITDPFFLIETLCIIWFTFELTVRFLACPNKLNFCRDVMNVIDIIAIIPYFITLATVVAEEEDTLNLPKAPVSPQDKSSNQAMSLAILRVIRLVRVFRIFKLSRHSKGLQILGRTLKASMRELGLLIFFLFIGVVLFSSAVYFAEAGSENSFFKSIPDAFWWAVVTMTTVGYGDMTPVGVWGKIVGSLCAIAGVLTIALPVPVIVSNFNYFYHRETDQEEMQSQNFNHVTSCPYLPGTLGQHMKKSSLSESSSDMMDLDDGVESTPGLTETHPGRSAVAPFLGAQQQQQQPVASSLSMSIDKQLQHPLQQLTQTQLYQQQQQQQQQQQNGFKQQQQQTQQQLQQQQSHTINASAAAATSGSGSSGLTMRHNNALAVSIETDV
T1 sequence (P08510 other isoform, or with tags, fused parts or gaps DEL6-46/M356R/A359R): as the sequence (P08510 other isoform, or with tags, fused parts or gaps DEL6-46) above, with M315R, A318R counted along it
Sequence of R362Q Shaker Kv channel (P08510 other isoform, or with tags, fused parts or gaps DEL6-46/R362Q): as the sequence (P08510 other isoform, or with tags, fused parts or gaps DEL6-46) above, with R321Q counted along it

`CC(C)c1ccc2c(c1)CC[C@H]1[C@](C)(C(=O)O)CCC[C@]21C` [DHAA, dehydroabietic acid]: in series [1], the pKa at 100 μM was 7.2. Moreover, the EC50 in series [2] (pH 7.4, data from Ottosson et al. Sci. Rep. 5, 13278 (2015), read-out: c1/2 (half-maximal concentration)) is 98 µM.

For the compound `C[C@@]1(C(=O)O)CCC[C@]2(C)c3cc(Cl)c(Cl)c(Cl)c3CCC12` (stereo partly drawn) [Wu50, reference compound], in series [1] (pH 7.4), the “Increase of affinity compared to DHAA (factor)” value is 2.7 and the “Increase of amplitude/efficacy compared to DHAA (factor)” value worked out at 1.7. Further, the EC50 in series [2] (read-out: c1/2 (half-maximal concentration), pH 7.4, data from Ottosson et al. Sci. Rep. 5, 13278 (2015)) was 37 µM and 36 µM.

Turning to `CC(C)c1ccc2c(c1)CC[C@H]1[C@](C)(C(=O)NCCS(=O)(=O)O)CCC[C@]21C` [Wu154, 2-((1R,4aS,10aR)-7-isopropyl-1,4a-dimethyl-1,2,3,4,4a,9,10,10a-octahydrophenanthrene-1-carboxamido)ethane-1-sulfonic Acid], the pKa at 100 μM in series [1] is below 7.4. Moreover, the “G(V) shift” value is −9.85 mV in series [1] (pH 7.4, 100 μM); −4.60 mV at hKv7.2/Kv7.3 (M-channel); −2.48 mV in series [3] (pH 7.4, 100 μM).

As to `CC(C)c1ccc2c(c1)CC[C@H]1[C@](C)(COS(=O)(=O)O)CCC[C@]21C` [Wu161, ((1R,4aS,10aR)-7-isopropyl-1,4a-dimethyl-1,2,3,4,4a,9,10,10a-octahydrophenanthren-1-yl)methyl Hydrogen Sulfate], the EC50 is 36 µM and 37 µM in series [1] (setting [4]); 41.8 µM and 42 µM on hKv7.2/Kv7.3 (M-channel) (concentration-response of G(V) shift, read-out: c1/2 (half-maximal concentration)); 44 µM in series [3] (setting [4]). Besides, the “Effect on R362Q compared with wt R362” value on R362Q Shaker Kv channel is “about the same effects”.

Take `CC(C)c1ccc2c(c1)CCC1[C@](C)(CCC(=O)O)CCC[C@]21C` (stereo partly drawn) [Wu179, 3-((1S,4aS)-7-isopropyl-1,4a-dimethyl-1,2,3,4,4a,9,10,10a-octahydrophenanthren-1-yl)propanoic Acid]: the pKa at 100 μM in series [1] amounted to 7.5. Moreover, the “G(V) shift” value is on record as 2.80 mV in series [1] (pH 5.5, 100 μM); −3.23 mV in series [1] (pH 6.5, 100 μM); −10.43 mV in series [1] (pH 7.4, 100 μM); −16.63 mV in series [1] (pH 9, 100 μM); −22.83 mV in series [1] (pH 10, 100 μM); −6.68 mV on hKv7.2/Kv7.3 (M-channel). Also, in series [3] (pH 10, 100 μM), the “G(V) shift” value was −3.83 mV.
